Laboratory results as given in US20250114369A1, “COMPOUNDS AND METHODS FOR TREATMENT OF VIRAL INFECTIONS” (Gilead Sciences, Inc., priority 2023, published 2025).
In brackets after ≈: the same amount, converted by molar mass.

Assays:
[1] = system: Respiratory syncytial virus recombinant with luciferase (RSV-Luc5); assay: microbe, parasite or virus in culture; assay type: cell-based; conditions: human respiratory syncytial virus, NHBE, 72 h, read-out: RSV NHBE EC50 (nM)
[2] = physchem; assay type: physicochemical; conditions: pH 7, aqueous buffer, thermodynamic from solid
Experimental: The aqueous solubility of compounds over a time of 24 hours was assessed. Solubility was determined at ambient temperature in a 50 mM phosphate buffered pH7 solution with 150 mM NaCl (to achieve isotonicity). Solids were added to the buffered solution in 1.5-mL Eppendorf tubes, vortexed for 1 minute, then agitated for 24 hours in an Eppendorf ThermoMixer C. To determine concentration in solution, the suspensions were centrifuged for 15 min at 15,000 rpm. Supernatants were diluted to a volume of 1 mL with 30:70 v/v acetonitrile:water. All diluted supernatants were analyzed by UPLC using a Waters Acquity UPLC with a PDA UV detector.

[3] = assay type: in vitro ADME; conditions: 2 μM
Experimental: Duplicate aliquots of plasma were warmed to 37° C. and the metabolic reactions initiated by the addition of test compound (6 μL of 0.1 mM DMSO stock) or plasma stability standard (GS-7340) to obtain a final substrate concentration of 2 μM. At 0.05, 0.5, 1, 2, 3 and 4 hr, 25 μL aliquots of the reaction mixture were transferred to plates containing 225 μl of IS/Q quenching solution. After quenching, the plates were centrifuged at 3000×g for 30 minutes, and 150 μL supernatant was diluted with 150 μL water. Aliquots (10 μL) of the diluted supernatant were analyzed on a Thermo Q-Exactive mass spectrometer as described below. Quantification of test compounds and controls was performed by analyte/internal standard peak area ratio (PAR) values measured on a Thermo Q-Exactive mass spectrometer coupled to a Dionex UltiMate 3000 HPLC with a Leap Technologies HTC PAL autosampler. The column used was a Thermo Hypersil GOLD (1.9 μm particle size, 2.1×50 mm). Mobile phase A consisted of […] formic acid in water. Mobile phase B consisted of 0.1% (v/v) formic acid in acetonitrile. Elution of analytes was achieved by a series of linear gradients of acetonitrile in water containing 0.1% (v/v) formic acid. The mass spectrometer was calibrated on a weekly basis and mass tolerance of 5 ppm was used.

[4] = system: SARS Coronavirus 2 recombinant with NanoLuc (SARS-CoV2-NLuc); assay: organism not typed; assay type: cell-based; conditions: 48 h
[5] = in vitro; assay type: cell-based; conditions: human
Experimental: Cytotoxicity of the compounds was determined in uninfected cells using the cell viability reagent in a similar fashion as described before for other cell types (Cihlar et al., Antimicrob Agents Chemother. 2008, 52(2):655-65). HEp-2 (1.5×10^3 cells/well) and MT-4 (2×10^3 cells/well) cells were plated in 384-well plates and incubated with the appropriate medium containing 3-fold serially diluted compound ranging from 15 nM to 100,000 nM. Cells were cultured for 4-5 days at 37° C. Following the incubation, the cells were allowed to equilibrate to 25° C., and cell viability was determined by adding Cell-Titer Glo viability reagent. The mixture was incubated for 10 min, and the luminescence signal was quantified using an Envision plate reader. Untreated cell and cells treated at 2 μM puromycin (Sigma, St. Louis, MO) serve as […] cell viability control, respectively. The percent of cell viability was calculated for each tested compound concentration relative to the 0% and 100% controls and the CC50 value was determined by non-linear regression as a compound concentration reducing the cell viability by […].

[6] = in vitro; assay type: in vitro ADME; conditions: human, s9, pH 7.4
Experimental: Duplicate aliquots of test compound or positive control substrate (GS-7340) were added to PMSF-free Intestinal S9 fractions diluted with 100 mM phosphate buffered saline, pH 7.4, to obtain a protein concentration of 1.0 mg/mL. The S9 metabolic reactions were initiated by the addition of the substrates to the S9 reaction mixture to a final concentration of 2 μM. At 0, 10, 20, 30, 60 and 120 min, 25 μL aliquots of the reaction mixture were transferred to plates containing 225 μl of IS/Q solution. After quenching, the plates were centrifuged at 3000×g for 30 minutes, and 150 μL aliquots of each supernatant were diluted with 150 μL water. Aliquots (10 μL) of the diluted supernatant were analyzed on a Thermo Q-Exactive mass spectrometer as described below. Quantification of test compounds and controls was performed by analyte/internal standard peak area ratio (PAR) values measured on a Thermo Q-Exactive mass spectrometer coupled to a Dionex UltiMate 3000 HPLC with a Leap Technologies HTC PAL autosampler. The column used was a Thermo Hypersil GOLD (1.9 μm particle size, 2.1×50 mm). Mobile phase A consisted of […] formic acid in water. Mobile phase B consisted of 0.1% (v/v) formic acid in acetonitrile. Elution of analytes was achieved by a series of linear gradients of acetonitrile in water containing 0.1% (v/v) formic acid. The mass spectrometer was calibrated on a weekly basis and mass tolerance of 5 ppm was used.

[7] = system: Caco-2 cells (clone C2BBel); assay: CACO-2 permeability; assay type: in vitro ADME; conditions: donor pH 6.5, receiver pH 7.4; for DM Caco2 A to B: forward (A to B); for DM Caco2 B to A: reverse (B to A)
Experimental: Pre-plated Caco-2 cells (clone C2BBel) were obtained from Sigma-Aldrich, Inc. (Atlanta, GA). Cell monolayers were grown to confluence on collagen-coated, microporous, polycarbonate membranes in 24-well transwell plates for 21 days. The permeability assay buffer in donor wells was Hanks' balanced salt solution (HBSS) containing 10 mM HEPES and 15 mM glucose at a pH of 6.5 containing 200 μM BNPP. The receiver wells used HBSS buffer containing 10 mM HEPES and 15 mM glucose at a pH of 7.4 and supplemented with 1% BSA. After an initial equilibration with transport buffer, TEER values were read to test membrane integrity. The experiment was started by the addition of buffers containing test compounds, 200 μl and 1000 μl in the apical and basolateral chamber, respectively. At 0- and 2-hour post dose, 10 μL was sampled from donor compartment and was immediately diluted in 190 μL of 20% methanol. At 1 and 2 hours post dose, 100 μl of solution was taken from the receiver compartments and was immediately diluted in 100 μl of 20% methanol. Removed buffer was replaced with fresh buffer and a correction was applied to all calculations for the removed material. Each compound was tested in 2 separate replicate wells for each condition. All samples were then extracted with 400 μl 100% acetonitrile with internal standard to precipitate protein. Cells were dosed on the apical or basolateral side to determine forward (A to B) and reverse (B to A) permeability. To test for non-specific binding and compound instability, the total amount of drug was quantitated at the end of the experiment and compared to the material present in the original dosing solution as a percent recovery. Formation of the parent compound (GS-441524; Reference Compound A) was monitored in assay wells dosed with the prodrug. Samples were analyzed by LC-MS/MS.

[8] = in vitro; assay type: in vitro ADME; conditions: human, s9, pH 7.4; remark: listed apart in the source
Experimental: Duplicate aliquots of test compound or positive control substrate (GS-7340) were added to S9 stock diluted with 100 mM potassium phosphate buffer, pH 7.4, to obtain a protein concentration of 2.4 mg/mL. The S9 metabolic reactions were initiated by the addition of the substrates to the S9 reaction mixture to a final concentration of 2 μM. At 2, 12, 25, 45, 65 and 90 min, 25 μL aliquots of the reaction mixture were transferred to plates containing 225 μl of IS/Q solution. After quenching, the plates were centrifuged at 3000×g for 30 minutes, and 150 μL aliquots of each supernatant were diluted with 150 μL water. Aliquots (10 μL) of the diluted supernatant were analyzed on a Thermo Q-Exactive mass spectrometer as described below. Quantification of test compounds and controls was performed by analyte/internal standard peak area ratio (PAR) values measured on a Thermo Q-Exactive mass spectrometer coupled to a Dionex UltiMate 3000 HPLC with a Leap Technologies HTC PAL autosampler. The column used was a Thermo Hypersil GOLD (1.9 μm particle size, 2.1×50 mm). Mobile phase A consisted of […] formic acid in water. Mobile phase B consisted of 0.1% (v/v) formic acid in acetonitrile. Elution of analytes was achieved by a series of linear gradients of acetonitrile in water containing 0.1% (v/v) formic acid. The mass spectrometer was calibrated on a weekly basis and mass tolerance of 5 ppm was used.
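For CC50 in this document: uninfected MT-4 cells over 4-5 days by CellTiter-Glo.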

COC(=O)c1cn(C(=O)OC[C@H]2O[C@@](C#N)(c3ccc4c(N)ncnn34)[C@H](O)[C@@H]2O)c2ccccc12 [Compound 1, O1-[[(2R,3S,4R,5R)-5-(4-aminopyrrolo[2,1-f][1,2,4]triazin-7-yl)-5-cyano-3,4-dihydroxy-tetrahydrofuran-2-yl]methyl]O3-methyl indole-1,3-dicarboxylate]
EC50 [1]: 5590 nM | solubility thermodynamic at 24 h [2]: 100 µg/mL (≈ 203 µM) | STA Human Plasma 37 [3]: 645.34 | EC50 [4]: 4.73 µM | CC50 [5]: > 50 µM | half-life at 2 μM [6]: 2.05 h | DM Caco2 A to B [7]: 0.69 | DM Caco2 B to A [7]: 12.34

N#C[C@@]1(c2ccc3c(N)ncnn23)O[C@H](COC(=O)n2cc(C(=O)OC3CCOCC3)c3ccccc32)[C@@H](O)[C@H]1O [Compound 2, O1-[[(2R,3S,4R,5R)-5-(4-aminopyrrolo[2,1-f][1,2,4]triazin-7-yl)-5-cyano-3,4-dihydroxy-tetrahydrofuran-2-yl]methyl]O3-tetrahydropyran-4-yl indole-1,3-dicarboxylate]
EC50 [1]: 14100 nM | solubility thermodynamic at 24 h [2]: 140 µg/mL (≈ 249 µM) | STA Human Plasma 37 [3]: 1055.4 | EC50 [4]: 5.52 µM | CC50 [5]: > 50 µM | half-life at 2 μM [6]: 7.93 h | DM Caco2 A to B [7]: 0.33 | DM Caco2 B to A [7]: 13.49

CC(C)NC(=O)OC[C@H]1O[C@@](C#N)(c2ccc3c(N)ncnn23)[C@H](O)[C@@H]1O [Compound 8, [(2R,3S,4R,5R)-5-(4-aminopyrrolo[2,1-f][1,2,4]triazin-7-yl)-5-cyano-3,4-dihydroxy-tetrahydrofuran-2-yl]methyl N-isopropylcarbamate]
EC50 [1]: > 50000 nM | solubility thermodynamic at 24 h [2]: > 13000 µg/mL | EC50 [4]: 31.9 µM | half-life at 2 μM [8]: ≥ 9.87 h | CC50 [5]: > 50 µM | half-life at 2 μM [6]: 13.1 h | DM Caco2 A to B [7]: 0.11 | DM Caco2 B to A [7]: 0.79

N#C[C@@]1(c2ccc3c(N)ncnn23)O[C@H](COC(=O)N2CCCCC2)[C@@H](O)[C@H]1O [Compound 13, [(2R,3S,4R,5R)-5-(4-aminopyrrolo[2,1-f][1,2,4]triazin-7-yl)-5-cyano-3,4-dihydroxy-tetrahydrofuran-2-yl]methyl piperidine-1-carboxylate]
EC50 [1]: > 50000 nM | solubility thermodynamic at 24 h [2]: 4480 µg/mL (≈ 11100 µM) | STA Human Plasma 37 [3]: 1584 | EC50 [4]: > 50 µM | half-life at 2 μM [8]: ≥ 9.87 h | CC50 [5]: > 50 µM | half-life at 2 μM [6]: ≥ 13.2 h | DM Caco2 A to B [7]: 0.3 | DM Caco2 B to A [7]: 6.39

CC(=O)O[C@H]1[C@@H](OC(C)=O)[C@](C#N)(c2ccc3c(N)ncnn23)O[C@@H]1COC(=O)N1CCCCCCC1 [Compound 19, [(2R,3R,4R,5R)-3,4-diacetoxy-5-(4-aminopyrrolo[2,1-f][1,2,4]triazin-7-yl)-5-cyano-tetrahydrofuran-2-yl]methyl azocane-1-carboxylate]
EC50 [1]: 18000 nM | solubility thermodynamic at 24 h [2]: 110 µg/mL (≈ 214 µM) | STA Human Plasma 37 [3]: 14.703 | EC50 [4]: 31.5 µM | half-life at 2 μM [8]: ≤ 0.0333 h | CC50 [5]: > 50 µM | half-life at 2 μM [6]: 0.0127 h | DM Caco2 A to B [7]: 6.33 | DM Caco2 B to A [7]: 13.32

CCOC(=O)c1cccn1C(=O)OC[C@H]1O[C@@](C#N)(c2ccc3c(N)ncnn23)[C@H](OC(C)=O)[C@@H]1OC(C)=O [Compound 20, O1-[[(2R,3R,4R,5R)-3,4-diacetoxy-5-(4-aminopyrrolo[2,1-f][1,2,4]triazin-7-yl)-5-cyano-tetrahydrofuran-2-yl]methyl]O2-ethyl pyrrole-1,2-dicarboxylate]
EC50 [1]: 731 nM | solubility thermodynamic at 24 h [2]: 10 µg/mL (≈ 18.5 µM) | STA Human Plasma 37 [3]: 67.544 | EC50 [4]: 4.28 µM | half-life at 2 μM [8]: ≤ 0.0333 h | CC50 [5]: > 50 µM | half-life at 2 μM [6]: 0.0104 h | DM Caco2 A to B [7]: 3.16 | DM Caco2 B to A [7]: 9.63

CC(=O)O[C@H]1[C@@H](OC(C)=O)[C@](C#N)(c2ccc3c(N)ncnn23)O[C@@H]1COC(=O)N1CCCCC1 [Compound 21, [(2R,3R,4R,5R)-3,4-diacetoxy-5-(4-aminopyrrolo[2,1-f][1,2,4]triazin-7-yl)-5-cyano-tetrahydrofuran-2-yl]methyl piperidine-1-carboxylate]
EC50 [1]: > 50000 nM | solubility thermodynamic at 24 h [2]: 370 µg/mL (≈ 761 µM) | STA Human Plasma 37 [3]: 11.334 | EC50 [4]: > 50 µM | half-life at 2 μM [8]: ≤ 0.0333 h | CC50 [5]: > 50 µM | half-life at 2 μM [6]: 0.0112 h | DM Caco2 A to B [7]: 3.99 | DM Caco2 B to A [7]: 19.68
